Broadly, the IC50 is the midpoint of a concentration-inhibition curve.

The target in the test is human PD-L1 / Human PD-1 (Homo sapiens (Human), UniProt Q9NZQ7). In words: Enzyme-Linked Immunosorbent Assay (ELISA), PD-1/PD-L1 binding. Conditions: plates coated with human PD-L1; biotinylated human PD-1; absorbance at 450 nm. How it is done:
96 Well plates were coated with 1 μg/mL of human PD-L1 (obtained from R&D) in PBS overnight at 4° C. The wells were then blocked with 2% BSA in PBS (W/V) with 0.05% TWEEN-20 for 1 hour at 37° C. The plates were washed 3 times with PBS/0.05% TWEEN-20 and the compounds were serial diluted (1:5) in dilution medium and added to the ELISA plates. Human PD-1 and biotin 0.3 μg/mL (ACRO Biosystems) were added and incubated for 1 hour at 37° C. then washed 3 times with PBS/0.05% TWEEN-20. A second block was performed with 2% BSA in PBS (W/V)/0.05% TWEEN-20 for 10 min at 37° C. and the plates were washed 3 times with PBS/0.05% TWEEN-20. Streptavidin-HRP was added for 1 hour at 37° C. then the plates were washed 3 times with PBS/0.05% TWEEN-20. TMB substrate was added and reacted for 20 min at 37° C. A stop solution (2 N aqueous H2SO4) was added. The absorbance was read at 450 nm using a micro-plate spectrophotometer. The results are shown in Table 1: IC50 values are provided as follows: from 100 up to 10,000 nM (+); less than 100 nM (++).

Chain of human PD-L1 / Human PD-1 (Q9NZQ7 19-239): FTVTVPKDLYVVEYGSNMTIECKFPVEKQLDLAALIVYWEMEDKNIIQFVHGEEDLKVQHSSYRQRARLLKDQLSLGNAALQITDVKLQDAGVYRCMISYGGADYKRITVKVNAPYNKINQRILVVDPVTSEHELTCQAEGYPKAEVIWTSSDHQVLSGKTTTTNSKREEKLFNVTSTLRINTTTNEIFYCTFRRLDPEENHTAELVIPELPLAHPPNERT

With `CCOc1cc(O[C@H]2CCc3c(-c4cccc(COc5cc(COC)c(CN(C)CCCC(=O)O)cc5Cl)c4C)cccc32)c(Cl)cc1CN(C)CCCC(=O)O` [Compound 1.012], the IC50 was below 100 nM.

In turn, `C[C@@H](O)[C@H](NCc1cc(Cl)c(O[C@H]2CCc3c(-c4cccc5c4CC[C@@H]5Oc4cc(OCc5cncc(C#N)c5)c(CN[C@H](C(=O)O)[C@@H](C)O)cc4Cl)cccc32)cc1OCc1cncc(C#N)c1)C(=O)O` [Compound 1.039] returned a concentration for half-maximal inhibition (IC50) below 100 nM.

Consider `CCOc1cc(O[C@H]2CCc3c(-c4cccc5c4CC[C@@H]5Oc4cc(OCC)c(CN[C@@](C)(CO)C(=O)O)cc4Cl)cccc32)c(Cl)cc1CN[C@@H]1CCC[C@@H]1O` [Compound 1.013], for which the IC50 was below 100 nM.

In turn, `COC(=O)CCCN(C)Cc1cc(Cl)c(O[C@H]2CCc3c(-c4cccc5c4CC[C@@H]5Oc4cc(OCc5cncc(C#N)c5)c(CN(C)CCCC(=O)OC)cc4Cl)cccc32)cc1OCc1cncc(C#N)c1` [Compound 1.027] showed an IC50 below 100 nM.

`CCOc1cc(O[C@H]2CCc3c(-c4cccc5c4CC[C@@H]5Oc4cc(OCc5cc(C#N)cc(C#N)c5)c(CN[C@@](C)(CO)C(=O)O)cc4Cl)cccc32)c(Cl)cc1CN[C@@](C)(CO)C(=O)O` [Compound 1.026]: the IC50 was below 100 nM.

On to `CCOc1cc(O[C@H]2CCc3c(-c4cccc5c4CC[C@@H]5Oc4cc(OCC)c(CN(C)CCC(=O)OC)cc4Cl)cccc32)c(Cl)cc1CN(C)CCC(=O)OC` [Compound 1.043], for which the IC50 lay in the range of 100 to 10000 nM.

As to `CCOc1cc(O[C@H]2CCc3c(-c4cccc5c4CC[C@@H]5Oc4cc(OCC)c(CN[C@@H](CO)C(N)=O)cc4Cl)cccc32)c(Cl)cc1CN[C@@H](CO)C(N)=O` [Compound 1.014], the IC50 was below 100 nM.

In the case of `N#Cc1cncc(COc2cc(O[C@H]3CCc4c(-c5cccc6c5CC[C@@H]6Oc5cc(OCc6cncc(C#N)c6)c(CN[C@@H](CO)C(=O)O)cc5Cl)cccc43)c(Cl)cc2CN[C@@H](CO)C(=O)O)c1` [Compound 1.038], the IC50 is below 100 nM.

As for `CCOc1cc(O[C@H]2CCc3c(-c4cccc5c4CC[C@@H]5Oc4cc(OCC)c(CN[C@@H](CO)C(=O)O)cc4Cl)cccc32)c(Cl)cc1CN[C@@H](CO)C(=O)O` [Compound 1.045], the IC50 is below 100 nM.

In turn, `CCOc1cc(O[C@H]2CCc3c(-c4cccc5c4CC[C@@H]5Oc4cc(OCC)c(CN[C@@](C)(CO)C(=O)O)cc4Cl)cccc32)c(Cl)cc1CN[C@@](C)(CO)C(=O)O` [Compound 1.044] registered an IC50 below 100 nM.

With `CCOc1cc(O[C@H]2CCc3c(-c4cccc5c4CC[C@@H]5Oc4cc(OCC)c(CN(C)CCC(=O)O)cc4Cl)cccc32)c(Cl)cc1CN(C)CCC(=O)O` [Compound 1.049], the IC50 was below 100 nM.

`CCOc1cc(O[C@H]2CCc3c(-c4cccc5c4CC[C@@H]5Oc4cc(OCC)c(CN(C)[C@@](C)(CO)C(=O)O)cc4Cl)cccc32)c(Cl)cc1CN(C)C[C@@H]1CCC(=O)N1` [Compound 1.006]: the IC50 is below 100 nM.

`CN(CCCC(=O)O)Cc1cc(Cl)c(O[C@H]2CCc3c(-c4cccc5c4CC[C@@H]5Oc4cc(OCc5cncc(C#N)c5)c(CN(C)CCCC(=O)O)cc4Cl)cccc32)cc1OCc1cncc(C#N)c1` [Compound 1.035] displayed an IC50 below 100 nM.

In turn, `Cc1c(COc2ccc(CN[C@@](C)(CO)C(=O)O)cc2F)cccc1-c1cccc2c1CCC2Oc1ccc(CN[C@@](C)(CO)C(=O)O)cc1F` (some centres unmarked) [Compound 1.010] showed an IC50 of 100 to 10000 nM.

The molecule `N#Cc1cncc(COc2cc(O[C@H]3CCc4c(-c5cccc6c5CC[C@@H]6Oc5cc(OCc6cncc(C#N)c6)c(CN[C@@H](CCO)C(=O)O)cc5Cl)cccc43)c(Cl)cc2CN[C@@H](CCO)C(=O)O)c1` [Compound 1.046] registered an IC50 below 100 nM.

With `COc1cc(CN[C@@](C)(CO)C(=O)O)ccc1OCc1cccc(-c2cccc3c2CCC3Oc2ccc(CN[C@@](C)(CO)C(=O)O)cc2OC)c1C` (some centres unmarked) [Compound 1.011], the IC50 fell in the range of 100 to 10000 nM.

In turn, `CCOc1cc(O[C@H]2CCc3c(-c4cccc5c4CC[C@@H]5Oc4cc(OCC)c(CN[C@H]5CCC(=O)NC5)cc4Cl)cccc32)c(Cl)cc1CN[C@H]1CCC(=O)NC1` [Compound 1.009] registered an IC50 below 100 nM.

(Values after patent US11872217B2, “Indanes as PD-L1 inhibitors” (CHEMOCENTRYX, INC., priority 2019, dated 2024).)
